Results: patent publication US12397167B2, “Compositions and methods of altering the electric impedance to an alternating electric field” (NOVOCURE GMBH, priority 2019, dated 2025)

These molecules were tested on clathrin-dependent pathway or macro-pinocytosis pathway (assay: Effect of endocytosis pathway inhibitors on BTNP accumulation in cytoplasm in response to TTFields). Conditions: specific inhibitors of clathrin-dependent or macro-pinocytosis pathway.
Type: cell-based
Source text: Nanoparticles (NPs) internalization into cells is known to be dependent on particle size and its zeta potential. NPs under 200 nm can be engulfed by cancer cells through clathrin-dependent pathway or macro-pinocytosis pathway. […] The data herein evidences that increased membrane permeability by TTFields can induce BTNP accumulation in cytoplasm of cancer cells.
In the case of N=C(N)NC(=O)c1nc(Cl)c(N)nc1N [amiloride], the “accumulation of BTNPs in cytoplasm in response to TTFields” value (from here on “accumulation of BTNPs in cytoplasm”) is reported as “did not modulate”. In the case of CN(C)CCCN1c2ccccc2Sc2ccc(Cl)cc21 [chlorpromazine], the “accumulation of BTNPs in cytoplasm” value is reported as “did not modulate”. For C=C1[C@@H](C)[C@H]2[C@H](Cc3ccccc3)NC(=O)[C@]23[C@H](OC(C)=O)/C=C/[C@@](C)(O)C(=O)[C@@H](C)C/C=C/[C@H]3[C@@H]1O [cytochalasin D], the “accumulation of BTNPs in cytoplasm” value was “did not modulate”.
